{"source": "patent US9561186B2", "about": "“Method for improving the bioavailability of low aqueous solubility drugs” (PHARMATHEN S.A., priority 2012, dated 2017)", "test": "Solubility of Tadalafil in 2-pyrrolidone", "assay_type": "physicochemical", "conditions": "compared with ethanol as solvent", "description": "Pyrroplus Manufacturing Process” as described above, overcomes several problems associated with the low solubility of Tadalafil. […] Conversely, using ethanol as solvent requires either increased amount of solvent or small quantity of Tadalafil, which both incommode the preparation of a pharmaceutical composition.", "data": [{"smiles": "CN1CC(=O)N2[C@H](c3ccc4c(c3)OCO4)c3[nH]c4ccccc4c3C[C@@H]2C1=O", "note": "[Tadalafil]", "values": [{"measurement": "solubility when dissolved in 2-pyrrolidone", "value": "its solubility increases and reaches high values"}]}]}
